Like-named read-outs stand apart in the source and are kept apart here.
Tests used:
[1] = Inhibition of LPS-induced TNF-α release from human peripheral blood mononuclear cells in vitro; type: cell-based; details: PBMC, hPBMC, 100 ng/mL LPS, 4 h; for IC50: class symbols, read-out: Re IC50 (nM) (relative IC50), TNF-α induced by LPS; for Emax: read-out: Max inhibition (%)
Experimental: Normal human peripheral blood which was anticoagulated (citric acid anticoagulation) was collected, and hPBMCs were prepared by Ficoll-Paque PLUS (Cytiva, Cat #17144002, density 1.077 g/mL). The concentration of hPBMC cells was adjusted to 0.25×10^6 cells/mL with RPMI1640 medium and inoculated into a 96-well plate in an amount of 50000 cells per well. Subsequently, different concentrations of drugs were added for pre-incubation for 1 h (the DMSO final concentration was 0.1%, and the positive and negative control wells had the same volume of RPMI1640 containing 0.1% DMSO). After the pre-incubation was complete, 100 ng/mL LPS (SIGMA, L2630) was added to the compound and positive control wells, and the negative control well had the same volume of RPMI1640 containing 0.1% DMSO. Incubation was carried out for 4 h in an incubator at 37° C. and 5% CO2. The cell supernatant was collected, and the content of TNF-α in the supernatant sample was detected by human TNF-α Elisa quantitative test kit (Sino Biological, Cat #KIT10602). The IC50 value was calculated using GraphPad Prism software.

PDE4D2 = target: T1, PDE4D2 (Homo sapiens, UniProt Q08499); experiment: Effect of compounds on PDE4D2 activity (fluorescence polarization kit); type: biochemical; details: class symbols
T1 construct: purchased BPS Bioscience 60345
T1 sequence (Q08499 303-809): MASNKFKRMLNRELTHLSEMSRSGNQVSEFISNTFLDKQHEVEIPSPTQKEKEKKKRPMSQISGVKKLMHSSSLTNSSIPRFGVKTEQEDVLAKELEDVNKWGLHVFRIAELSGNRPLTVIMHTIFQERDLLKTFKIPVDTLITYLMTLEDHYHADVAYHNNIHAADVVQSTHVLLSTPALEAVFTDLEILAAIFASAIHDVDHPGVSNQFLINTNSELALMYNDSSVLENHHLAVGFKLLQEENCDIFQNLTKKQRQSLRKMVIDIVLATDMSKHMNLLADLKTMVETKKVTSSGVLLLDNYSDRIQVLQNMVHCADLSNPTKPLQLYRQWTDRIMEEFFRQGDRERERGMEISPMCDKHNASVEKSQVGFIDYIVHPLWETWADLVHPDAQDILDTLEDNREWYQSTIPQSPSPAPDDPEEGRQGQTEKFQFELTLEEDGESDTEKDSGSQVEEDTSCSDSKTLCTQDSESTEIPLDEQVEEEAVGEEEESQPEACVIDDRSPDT
Experimental: The effect of compounds on PDE4D2 activity was detected by a fluorescence polarization kit (BPS Bioscience, Catalog #60345). During the reaction, 12.5 μL of 0.272 ng/well of an enzyme (final concentration: 0.068 ng/well) and 12.5 μL of the compound diluted in a gradient manner (DMSO concentration: 4%) were first pre-incubated at room temperature for 15 minutes, the same volume of the enzyme at the same concentration and 12.5 μL of PDE buffer containing 4% DMSO were added to the positive control well, and 25 μL of PDE buffer containing 2% DMSO was added to the negative control well. After completion, 25 μL of […] FAM-Cyclic-3′,5′-AMP (final concentration: […]) was added to each well, fully mixed, and then incubated at room temperature with slow shaking for 30 minutes. The Binding Agent was diluted with the Binding Agent Diluent (cAMP) at a ratio of 1:100 for later use, 100 μl/well of the Binding Agent dilution was taken and added to all wells of the test plate and incubated at room temperature with slow shaking for 1 hour.
After the incubation was complete, BMG LRBTECH microplate reader was used for FP detection, with Excitation at 485 nm and Emission at 520 nm. FP was usually represented by mP value.
[formula] • I∥ (S520): fluorescence intensity in parallel direction • I⊥ (P520): fluorescence intensity in perpendicular direction • G: G factor=1
(§1) [formula] • mP(sample): mP of the test compound in a reaction well • mP(negative control): mP in the negative control well • mP(positive control): mP in the positive control well
(§2) According to the calculated inhibition rate at each concentration, the IC50 value of each compound was calculated by GraphPad Prism 8 software.

PDE4B2 = target: T2, PDE4B2 (Homo sapiens, UniProt Q07343); experiment: Effect of compounds on PDE4B2 activity (fluorescence polarization kit); type: biochemical
T2 construct: purchased BPS Bioscience 60343
T2 sequence (Q07343 1-564 isoform Q07343-2): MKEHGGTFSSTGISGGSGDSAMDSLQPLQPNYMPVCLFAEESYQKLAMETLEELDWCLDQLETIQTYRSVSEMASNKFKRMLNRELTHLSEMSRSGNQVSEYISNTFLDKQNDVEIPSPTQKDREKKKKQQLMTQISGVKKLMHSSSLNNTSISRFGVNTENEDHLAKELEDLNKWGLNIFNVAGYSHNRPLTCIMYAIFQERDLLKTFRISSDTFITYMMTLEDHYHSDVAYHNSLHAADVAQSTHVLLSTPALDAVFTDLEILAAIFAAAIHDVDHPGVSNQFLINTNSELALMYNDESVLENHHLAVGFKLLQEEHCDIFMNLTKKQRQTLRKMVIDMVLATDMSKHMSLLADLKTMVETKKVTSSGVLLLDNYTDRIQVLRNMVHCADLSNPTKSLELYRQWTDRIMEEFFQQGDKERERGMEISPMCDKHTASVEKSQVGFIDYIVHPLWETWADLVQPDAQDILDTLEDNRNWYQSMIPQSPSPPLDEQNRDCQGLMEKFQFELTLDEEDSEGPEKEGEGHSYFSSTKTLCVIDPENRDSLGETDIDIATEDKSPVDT
Experimental: The effect of compounds on PDE4B2 activity was detected by a fluorescence polarization kit (BPS Bioscience, Catalog #60343). According to the instructions of the kit, FAM-Cyclic-3′,5′-AMP at a final concentration of […], 1 ng/well of PDE4B2 (PDE buffer was added to the negative control well), and a compound diluted in a gradient manner (PDE buffer containing 10% DMSO was added to the positive control well) were added to each well, fully mixed, and then reacted at room temperature for 1 h. The Binding Agent was diluted with the Binding Agent Diluent (cAMP) at a ratio of 1:100 for later use, the Binding Agent dilution was taken and added to the test plate at 50 μl/well and incubated at room temperature with slow shaking for 20 minutes. After the incubation was complete, Envision was used for FP detection, with Excitation at 480 nm and Emission at 535 nm. FP was usually represented by mP value.
[formula] • I∥ (S535): fluorescence intensity in parallel direction • I⊥ (P535): fluorescence intensity in perpendicular direction • G: G factor=1
as §1, §2

[2] = Pharmacokinetic test in mice; type: in vivo, ICR mice
Experimental: 5.1 Experimental animals: Male ICR mice, 20-25 g, 6 mice/compound. Purchased from Chengdu Ddossy Experimental Animals Co., Ltd.
5.2 Experimental design: On the day of the experiment, 42 ICR mice were randomly grouped according to their body weights. The animals were fasted with water available for 12-14 h one day before administration and fed 4 h after administration.
Before and after administration, 0.06 mL of blood was taken from the orbit under isoflurane anesthesia and placed in an EDTAK2 centrifuge tube for centrifugation at 5000 rpm at 4-C for 10 min, followed by plasma collection. The blood collection time points for the intravenous group and intragastric group were both 0 m, 5 mi, 15 mi, 30 mi, 1 h, 2 h, 4 h, 6 h, 8 h, and 24 h. Before analysis and detection, all the samples were stored at −80° C., and the samples were subjected to quantitative analysis using LC-MS/MS.

[3] = class symbols, read-out: PDE4B2 IC50
[4] = male, ICR, mouse, iv, plasma, i.v. (5 mg/kg)
[5] = male, ICR, mouse, po, plasma, i.g. (10 mg/kg)

N#Cc1ccc2c(c1)OCC1CN(c3nc4c(c(NC5(CO)CCC5)n3)[S+]([O-])CC4)CCN21 (single isomer, unassigned) [Compound 74-1]
IC50 [1]: 10 to 50 nM | Emax [1]: 72.4% | IC50 (PDE4D2): < 10 nM | IC50 (PDE4B2; [3]): < 10 nM

CC(=O)N1CCN2c3ccc(-c4nc5c(c(NC6(CO)CCC6)n4)[S+]([O-])CC5)cc3OCC2C1 (single isomer, unassigned) [Compound 78-1]
IC50 [1]: < 10 nM | Emax [1]: 61.2% | IC50 (PDE4B2; [3]): 10 to 50 nM

CC1CN(c2ccc3c(c2)OCC2CN(c4nc5c(c(NC6(CO)CCC6)n4)[S@+]([O-])CC5)CCN32)C1 (single isomer, unassigned) [Compound 81-2]
IC50 (PDE4D2): < 10 nM | IC50 (PDE4B2; [3]): < 10 nM

[O-][S@+]1CCc2nc(N3CC=C(c4ccc(Cl)cc4)CC3)nc(NC3(CO)CCC3)c21 [Compound 1]
IC50 (PDE4D2): < 10 nM | F ([2]; i.g. (10 mg/kg)): 76.2 ± 4.7% | AUC(0-t) [2, 4]: 8660 ± 759 ng·h/mL | clearance [2, 4]: 4.55 ± 0.46 mL/min/kg | half-life [2, 4]: 6.17 ± 0.71 h | Vd ([2]; male, ICR, mouse, iv, plasma, i.v. (5 mg/kg), read-out: Vdss): 2.07 ± 0.2 L/kg | AUC(0-t) [2, 5]: 26400 ± 1640 ng·h/mL | half-life [2, 5]: 15.7 ± 4.1 h | IC50 (PDE4B2; [3]): < 10 nM | IC50 (PDE4B2; values in text, read-out: IC50 against PDE4B2): 2.45 nM

[O-][S@+]1CCc2nc(N3CC=C(c4ccc(Cl)cc4)CCC3)nc(NC3(CO)CCC3)c21 [Compound 4]
IC50 (PDE4D2): 10 to 50 nM | IC50 (PDE4B2; [3]): 10 to 50 nM

[O-][S@+]1CCc2nc(N3C[C@H]4CN(c5ccc(Cl)cc5)C[C@H]4C3)nc(NC3(CO)CCC3)c21 [Compound 6]
IC50 (PDE4D2): < 10 nM | IC50 (PDE4B2; [3]): 10 to 50 nM

[O-][S@+]1CCc2nc(N3CCC(c4ccc5c(c4)CC5)CC3)nc(NC3(CO)CCC3)c21 [Compound 8]
IC50 (PDE4D2): 10 to 50 nM | IC50 (PDE4B2; [3]): 10 to 50 nM

[O-][S@+]1CCc2nc(N3CCC(c4ccc5c(c4)CCC5)CC3)nc(NC3(CO)CCC3)c21 [Compound 9]
IC50 (PDE4D2): 10 to 50 nM

[O-][S@+]1CCc2nc(N3CC4(CC(c5ccc(Cl)cc5)C4)C3)nc(NC3(CO)CCC3)c21 [Compound 10]
IC50 (PDE4D2): 10 to 50 nM | IC50 (PDE4B2; [3]): 10 to 50 nM

[O-][S+]1CCc2nc(N3CCC4=C(CCc5cc(Cl)ccc54)C3)nc(NC3(CO)CCC3)c21 (stereo not drawn) [Compound 30]
IC50 (PDE4D2): < 10 nM

[O-][S@+]1CCc2nc(C3=CCN(c4ncc(Cl)cn4)CC3)nc(NC3(CO)CCC3)c21 [Compound 32]
IC50 (PDE4D2): 10 to 50 nM

[O-][S@+]1CCc2nc(N3CCC(c4ccc(Cl)cc4)=C(F)C3)nc(NC3(CO)CCC3)c21 [Compound 43]
IC50 (PDE4D2): 10 to 50 nM | IC50 (PDE4B2; [3]): < 10 nM

N#Cc1cnc(C2=CCN(c3nc4c(c(NC5(CO)CCC5)n3)[S@+]([O-])CC4)CC2)nc1 [Compound 50]
IC50 (PDE4D2): 10 to 50 nM | IC50 (PDE4B2; [3]): 10 to 50 nM

[O-][S@+]1CCc2nc(N3CC=C(c4cccc(S(F)(F)(F)(F)F)c4)CC3)nc(NC3(CO)CCC3)c21 [Compound 51]
IC50 (PDE4D2): 10 to 50 nM | IC50 (PDE4B2; [3]): < 10 nM

[O-][S@+]1CCc2nc(N3CC=C(c4cccc(SC(F)(F)F)c4)CC3)nc(NC3(CO)CCC3)c21 [Compound 52]
IC50 (PDE4D2): 10 to 50 nM

[O-][S+]1CCc2nc(N3CC=C(c4ncc(C5CC5)cn4)CC3)nc(NC3(CO)CCC3)c21 (stereo not drawn) [Compound 53]
IC50 (PDE4D2): < 10 nM | IC50 (PDE4B2; [3]): < 10 nM

C[Si]1(C)CCN(c2cnc(C3=CCN(c4nc5c(c(NC6(CO)CCC6)n4)[S@+]([O-])CC5)CC3)nc2)CC1 [Compound 54]
IC50 [1]: 10 to 50 nM | Emax [1]: 78.4% | IC50 (PDE4D2): < 10 nM | IC50 (PDE4B2; [3]): < 10 nM

Cc1nnc(C2=CCN(c3nc4c(c(NC5(CO)CCC5)n3)[S@+]([O-])CC4)CC2)o1 [Compound 55]
IC50 [1]: 10 to 50 nM | Emax [1]: 67.2% | IC50 (PDE4D2): < 10 nM | IC50 (PDE4B2; [3]): < 10 nM

[O-][S@+]1CCc2nc(N3CC=C(c4nc5ccccc5s4)CC3)nc(NC3(CO)CCC3)c21 [Compound 56]
IC50 (PDE4D2): < 10 nM | IC50 (PDE4B2; [3]): < 10 nM

C#Cc1cnc(N2CCN(c3nc4c(c(NC5(CO)CCC5)n3)[S+]([O-])CC4)CC2)nc1 (stereo not drawn) [Compound 57]
IC50 (PDE4D2): 10 to 50 nM | IC50 (PDE4B2; [3]): 10 to 50 nM

[O-][S@+]1CCc2nc(N3CC=C(c4nc5ccccc5o4)CC3)nc(NC3(CO)CCC3)c21 [Compound 58]
IC50 (PDE4D2): < 10 nM | IC50 (PDE4B2; [3]): < 10 nM

CP(C)(=O)c1cnc(C2=CCN(c3nc4c(c(NC5(CO)CCC5)n3)[S@+]([O-])CC4)CC2)nc1 [Compound 59]
IC50 (PDE4D2): 10 to 50 nM | IC50 (PDE4B2; [3]): 10 to 50 nM

Cc1coc(C2=CCN(c3nc4c(c(NC5(CO)CCC5)n3)[S@+]([O-])CC4)CC2)n1 [Compound 60]
IC50 (PDE4D2): 10 to 50 nM | IC50 (PDE4B2; [3]): 10 to 50 nM

CP(C)(=O)c1cccc(C2=CCN(c3nc4c(c(NC5(CO)CCC5)n3)[S@+]([O-])CC4)CC2)c1 [Compound 63]
IC50 (PDE4D2): < 10 nM | IC50 (PDE4B2; [3]): < 10 nM

N#CC1(c2cnc(C3=CCN(c4nc5c(c(NC6(CO)CCC6)n4)[S@+]([O-])CC5)CC3)nc2)CC1 [Compound 64]
IC50 [1]: < 10 nM | Emax [1]: 70.8% | IC50 (PDE4D2): 10 to 50 nM | IC50 (PDE4B2; [3]): < 10 nM

[O-][S@+]1CCc2nc(N3C[C@H]4CN(c5ncc6c(n5)CC6)C[C@H]4C3)nc(NC3(CO)CCC3)c21 [Compound 65]
IC50 [1]: 10 to 50 nM | Emax [1]: 82% | IC50 (PDE4D2): < 10 nM | IC50 (PDE4B2; [3]): < 10 nM

[O-][S@+]1CCc2nc(N3CC=C(c4ccc5c(c4)COB5O)CC3)nc(NC3(CO)CCC3)c21 [Compound 66]
IC50 [1]: 10 to 50 nM | Emax [1]: 79.3% | IC50 (PDE4D2): < 10 nM | IC50 (PDE4B2; [3]): < 10 nM

CP(C)(=O)c1ccnc(C2=CCN(c3nc4c(c(NC5(CO)CCC5)n3)[S@+]([O-])CC4)CC2)n1 [Compound 71]
IC50 (PDE4D2): 10 to 50 nM | IC50 (PDE4B2; [3]): 10 to 50 nM

CC#Cc1ccc(C2=CCN(c3nc4c(c(NC5(CO)CCC5)n3)[S@+]([O-])CC4)CC2)nc1 [Compound 82]
IC50 (PDE4D2): < 10 nM | IC50 (PDE4B2; [3]): < 10 nM

Source: patent US20250326765A1, “PDE4B INHIBITOR AND USE THEREOF” (XIZANG HAISCO PHARMACEUTICAL CO., LTD., priority 2022, published 2025)
